Results as given in patent publication US20160355530A1, “HEPATITIS C INHIBITORS AND USES THEREOF” (AbbVie Inc., priority 2010, published 2016).
Like-named read-outs stand apart in the source and are kept apart here.

Legend:
[1] = target: T1, HCV NS5B polymerase 1a-H77 (Hepatitis C virus genotype 1a, UniProt P27958); experiment: biochemical; parameters: species or system HCV genotype 1a
T1 construct: six-histidine tag; made in house; host or cells: E. coli
In short: (§1)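 Recombinant NS5B (residues 1–570, His-tagged, E. coli-expressed) copied 5 nM of a 2.1 kb HCV 1b negative-strand 3′-end RNA template with 20 μM CTP, 20 μM ATP and 0.284 μM [3H]UTP for 3 h at 30 °C. Spermine-precipitated RNA was filter-captured and counted, and IC50 was fitted by nonlinear regression.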

[2] = target: T2, HCV NS5B polymerase 1a-H77-C316Y (Hepatitis C virus genotype 1a, UniProt P27958, C2736Y); experiment: biochemical; parameters: species or system HCV genotype 1a
T2 construct: six-histidine tag; made in house; host or cells: E. coli
T2 sequence (P27958 2421-2990 C2736Y): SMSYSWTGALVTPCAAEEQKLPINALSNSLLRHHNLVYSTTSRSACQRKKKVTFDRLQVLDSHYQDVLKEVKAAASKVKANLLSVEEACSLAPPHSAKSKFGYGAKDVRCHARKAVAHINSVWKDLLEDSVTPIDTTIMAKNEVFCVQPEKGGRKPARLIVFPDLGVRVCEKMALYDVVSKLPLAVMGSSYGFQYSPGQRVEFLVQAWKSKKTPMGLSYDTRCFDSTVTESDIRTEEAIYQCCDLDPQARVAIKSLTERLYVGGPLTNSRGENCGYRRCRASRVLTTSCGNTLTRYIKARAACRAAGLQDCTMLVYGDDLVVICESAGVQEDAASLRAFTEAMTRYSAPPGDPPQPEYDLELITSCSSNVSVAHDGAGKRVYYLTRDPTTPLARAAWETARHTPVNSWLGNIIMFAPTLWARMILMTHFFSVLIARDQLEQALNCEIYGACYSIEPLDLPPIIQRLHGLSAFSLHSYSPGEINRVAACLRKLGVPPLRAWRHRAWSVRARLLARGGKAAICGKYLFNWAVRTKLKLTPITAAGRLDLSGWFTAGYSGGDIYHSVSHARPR
In short: as §1

[3] = system: HCV NS5B polymerase 1a-H77-C316Y; experiment: biochemical; parameters: species or system HCV genotype 1a; conditions: ratio of enzyme IC50s, 1a H77-C316Y / 1a H77
In short: as §1

[4] = target: T3, HCV NS5B polymerase 1b BK strain (Hepatitis C virus genotype 1b, UniProt P26663); experiment: HCV NS5B polymerase enzymatic inhibition assay, strain 1b BK; assay type: biochemical
T3 construct: six-histidine tag; made in house; host or cells: E. coli
T3 sequence (P26663 2420-2989): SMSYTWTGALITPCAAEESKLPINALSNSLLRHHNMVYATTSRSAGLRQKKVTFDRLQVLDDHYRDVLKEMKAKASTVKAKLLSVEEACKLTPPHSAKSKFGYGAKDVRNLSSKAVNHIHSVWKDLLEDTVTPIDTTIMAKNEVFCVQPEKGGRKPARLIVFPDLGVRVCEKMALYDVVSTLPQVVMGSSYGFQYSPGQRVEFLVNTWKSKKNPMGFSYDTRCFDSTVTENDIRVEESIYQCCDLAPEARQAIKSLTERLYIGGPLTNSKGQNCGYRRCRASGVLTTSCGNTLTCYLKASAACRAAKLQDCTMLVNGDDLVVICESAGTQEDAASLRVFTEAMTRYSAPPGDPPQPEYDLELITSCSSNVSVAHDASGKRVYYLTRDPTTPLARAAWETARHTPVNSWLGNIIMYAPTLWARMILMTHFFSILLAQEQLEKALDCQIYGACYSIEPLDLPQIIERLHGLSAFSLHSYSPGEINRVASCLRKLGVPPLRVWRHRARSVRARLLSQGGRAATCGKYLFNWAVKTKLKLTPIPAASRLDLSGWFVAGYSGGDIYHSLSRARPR
In short: as §1

[5] = system: HCV 1a-H77 subgenomic replicon; experiment: microbe, parasite or virus in culture; assay type: cell-based, HCV genotype 1a; conditions: Hepatitis C virus
[6] = system: HCV 1b-BB7 subgenomic replicon; experiment: microbe, parasite or virus in culture; assay type: cell-based, HCV genotype 1b; conditions: Hepatitis C virus
[7] = system: chimeric replicon with 2a-J6CF-derived NS5B; experiment: microbe, parasite or virus in culture; assay type: cell-based, HCV genotype 2a; conditions: Hepatitis C virus, read-out: 2a chimera 5% FBS EC50
[8] = system: chimeric replicon with genotype 2b NS5B; experiment: microbe, parasite or virus in culture; assay type: cell-based, HCV genotype 2b; conditions: Hepatitis C virus, read-out: 2b chimera 5% FBS EC50
[9] = system: chimeric replicon with genotype 3a NS5B; experiment: microbe, parasite or virus in culture; assay type: cell-based, HCV genotype 3a; conditions: Hepatitis C virus, read-out: 3a chimera 5% FBS EC50
[10] = system: chimeric replicon with genotype 4a NS5B; experiment: microbe, parasite or virus in culture; assay type: cell-based, HCV genotype 4a; conditions: Hepatitis C virus, read-out: 4a chimera 5% FBS EC50
[11] = system: HCV 1a-H77 transient subgenomic replicon in Huh-7 derived cell line; experiment: microbe, parasite or virus in culture; assay type: cell-based, HCV genotype 1a; conditions: Hepatitis C virus
Method: (§2) In addition to the stable replicon inhibition assays, transient replicon assays were performed. Transient replicons are identical to the 1a-H77 and 1a-H77-C316Y constructs, except they lack the Neo gene, making it impossible to establish stable cell lines. A T7 Megascript RNA synthesis kit (Ambion) was used to transcribe the HCV subgenomic RNA. The HCV RNA was then precipitated with lithium chloride according to manufacturer's instructions. The HCV subgenomic replicon RNA was transfected via electroporation into a Huh-7 derived cell line as described (Middleton T, et al. J. Virological Methods 2007; 145(2): 137-145). Transfected cells were diluted and plated in 96 well plates at 5×10^3 cells per well in DMEM. Four hours post-transfection, the wells from one plate were harvested for luciferase measurement. This plate provides a measure of the amount of translatable input RNA, and therefore transfection efficiency. To the wells of the remaining plates, a 3-fold dilution series of test compounds was added in DMSO (0.5% DMSO final concentration), and plates were incubated at 37° C., 5% CO2 in a humidified incubator for 4 days. After this period, the media was removed and the plates were washed with 100 μL phosphate-buffered saline per well. For the luciferase assay, 30 μL of Passive Lysis buffer (Promega) was added to each well, and then the plates were incubated for 15 minutes with rocking to lyse the cells. Luciferin solution (100 μL, Promega) was added to each well, and luciferase activity was measured with a Victor II luminometer (Perkin-Elmer). The EC50 values were calculated using GraphPad Prism 4 software.

[12] = system: HCV 1a-H77-C316Y transient subgenomic replicon in Huh-7 derived cell line; experiment: microbe, parasite or virus in culture; assay type: cell-based, HCV genotype 1a; conditions: for EC50: Hepatitis C virus, Huh-7, read-out: Transient Replicon 1a H77-C316Y 5% FBS EC50; for Transient Replicon Fold Resistance C316Y/1a: ratio of transient replicon EC50s, C316Y / 1a H77
Method: as §2

[13] = enzyme, strain 1a H77, read-out: HCV Polymerase Strain 1a H77 IC50
[14] = enzyme, strain 1b BK, read-out: HCV Polymerase Strain 1b BK IC50
[15] = stable replicon, 5% FBS, absence of human plasma, read-out: Stable Replicon 1a H77 5% FBS EC50
[16] = stable replicon, strain 1a H77, 5% FBS + 40% human plasma, read-out: 1a H77 5% FBS + 40% Human Plasma EC50
[17] = stable replicon, strain 1a H77, 5% FBS, no human plasma, read-out: 1a H77 5% FBS EC50
[18] = stable replicon, strain 1a H77, 5% FBS, read-out: 1a H77 5% FBS EC50
[19] = stable replicon, strain 1b BB7, 5% FBS + 40% human plasma, read-out: 1b BB7 5% FBS + 40% Human Plasma EC50
[20] = stable replicon, strain 1b BB7, 5% FBS, no human plasma, read-out: 1b BB7 5% FBS EC50
[21] = stable replicon, strain 1b BB7, 5% FBS, read-out: 1b BB7 5% FBS EC50
[22] = Huh-7, transient replicon, 5% FBS, read-out: Transient Replicon 1a H77 5% FBS EC50

T1 sequence (P27958 2421-2990): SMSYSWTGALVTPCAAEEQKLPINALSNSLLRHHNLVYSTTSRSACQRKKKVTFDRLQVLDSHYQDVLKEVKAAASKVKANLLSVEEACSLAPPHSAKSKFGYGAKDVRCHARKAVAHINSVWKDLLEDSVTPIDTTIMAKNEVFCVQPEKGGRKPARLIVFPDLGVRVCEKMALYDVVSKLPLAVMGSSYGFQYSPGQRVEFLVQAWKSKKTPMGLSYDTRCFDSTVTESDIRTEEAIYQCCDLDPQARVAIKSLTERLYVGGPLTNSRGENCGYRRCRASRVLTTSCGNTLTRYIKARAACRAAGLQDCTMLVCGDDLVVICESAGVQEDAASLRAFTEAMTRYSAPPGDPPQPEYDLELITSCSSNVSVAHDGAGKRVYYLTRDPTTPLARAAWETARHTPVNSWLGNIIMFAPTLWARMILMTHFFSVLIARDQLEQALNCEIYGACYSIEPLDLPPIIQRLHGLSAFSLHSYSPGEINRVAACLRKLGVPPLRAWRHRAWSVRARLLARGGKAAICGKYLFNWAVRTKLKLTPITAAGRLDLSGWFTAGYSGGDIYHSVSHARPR

| Structure (SMILES) | IC50 [1, 13] [nM] | IC50 [2] [nM] | C316Y/1a Fold Resistance [3] [fold] | IC50 [4, 14] [nM] | EC50 [5, 15] [nM] | EC50 [5, 16] [nM] | EC50 [5, 17] [nM] | EC50 [5, 18] [nM] | EC50 [6, 19] [nM] | EC50 [6, 20] [nM] | EC50 [6, 21] [nM] | EC50 [7] [nM] | EC50 [8] [nM] | EC50 [9] [nM] | EC50 [10] [nM] | EC50 [11, 22] [nM] | EC50 [12] [nM] | Transient Replicon Fold Resistance C316Y/1a [12] [fold] | also measured |
| --- | --- | --- | --- | --- | --- | --- | --- | --- | --- | --- | --- | --- | --- | --- | --- | --- | --- | --- | --- |
| CC1NC(c2c(-c3ccc(F)cc3)oc3cc(N(CC[S+](C)[O-])S(C)(=O)=O)c(C4CC4)cc23)=NO1 (stereo not shown) [Example 13, N-[5-cyclopropyl-2-(4-fluorophenyl)-3-(5-methyl-4,5-dihydro-1,2,4-oxadiazol-3-yl)-1-benzofuran-6-yl]-N-[2-(methylsulfinyl)ethyl]methanesulfonamide] | 7.4 | 115 | 16 | 26 | 14.8 | 163 | 14.8 | 14.8 | 146 | 15.9 | 15.9 | 384 | 307 | 42 | 159 | 11.1 | 134 | 12 | – |
| CS(=O)(=O)N(CCCS(N)(=O)=O)c1cc2oc(-c3ccc(F)cc3)c(C3=NOCN3)c2cc1C1CC1 [Example 15, 3-{[5-cyclopropyl-3-(4,5-dihydro-1,2,4-oxadiazol-3-yl)-2-(4-fluorophenyl)-1-benzofuran-6-yl](methylsulfonyl)amino}propane-1-sulfonamide] | – | 31 | 10 | 11 | 6.5 | 1770 | 6.5 | 6.5 | 818 | 10 | 10 | 128 | 105 | 12 | 142 | 8.2 | 166 | 20 | IC50 [1]: 3 nM |
| CS(=O)(=O)N(CCCCO)c1cc2oc(-c3ccc(F)cc3)c(C3=NOCN3)c2cc1C1CC1 [Example 16, N-[5-cyclopropyl-3-(4,5-dihydro-1,2,4-oxadiazol-3-yl)-2-(4-fluorophenyl)-1-benzofuran-6-yl]-N-(4-hydroxybutyl)methanesulfonamide] | 3 | 35 | 12 | 18 | 3.8 | 411 | 3.8 | 3.8 | 2190 | 2.5 | 2.5 | 43.8 | 60.4 | 5.5 | 61.3 | 2.6 | 43.7 | 17 | – |
| CC(C)CCN(c1cn2nc(-c3ccc(F)cc3)c(-c3ncc[nH]3)c2cc1C1CC1)S(C)(=O)=O [Example 17, N-[5-cyclopropyl-2-(4-fluorophenyl)-3-(1H-imidazol-2-yl)pyrazolo[1,5-a]pyridin-6-yl]-N-(3-methylbutyl)methanesulfonamide] | 34.9 | 1800 | 52 | 438 | 98.9 | 1200 | 98.9 | 98.9 | 395 | 57.2 | 57.2 | 1000 | 1000 | 148 | > 1000 | 55 | 838 | 15 | – |
| CS(=O)(=O)N(CCCC#N)c1cc2oc(-c3ccc(F)cc3)c(-c3ncc[nH]3)c2cc1C1CC1 [Example 49, N-(3-cyanopropyl)-N-[5-cyclopropyl-2-(4-fluorophenyl)-3-(1H-imidazol-2-yl)-1-benzofuran-6-yl]methanesulfonamide] | 5 | 52 | 10 | 17 | 3.7 | 53.9 | 3.7 | 3.7 | 28.1 | 3 | 3 | 22.4 | 41.5 | 3.7 | 33.9 | 2.2 | 76.8 | 35 | – |
| CCOC(=O)CCCCN(c1cc2oc(-c3ccc(F)cc3)c(-c3ncc[nH]3)c2cc1C1CC1)S(C)(=O)=O [Example 50, ethyl 5-{[5-cyclopropyl-2-(4-fluorophenyl)-3-(1H-imidazol-2-yl)-1-benzofuran-6-yl](methylsulfonyl)amino}pentanoate] | 3.9 | 104 | 27 | 12 | 12.2 | 97 | 12.2 | 12.2 | 67 | 8.7 | 8.7 | 90.7 | 147 | 15.3 | 149 | 9.5 | 169 | 18 | – |
| CS(=O)(=O)N(CCC1CCS(=O)(=O)C1)c1cc2oc(-c3ccc(F)cc3)c(-c3ncc[nH]3)c2cc1C1CC1 (stereo not shown) [Example 61, N-[5-cyclopropyl-2-(4-fluorophenyl)-3-(1H-imidazol-2-yl)-1-benzofuran-6-yl]-N-[2-(1,1-dioxidotetrahydrothiophen-3-yl)ethyl]methanesulfonamide] | – | 76 | 9 | – | – | – | – | – | – | – | – | 41 | 29.9 | 6.2 | 18.4 | – | 45.8 | 13 | IC50 [1]: 8.9 nM; IC50 [4]: 16 nM; EC50 ([5]; read-out: 1a H77 5% FBS + 40% Human Plasma EC50): 72.2 nM; EC50 ([5]; read-out: 1a H77 5% FBS EC50): 5.4 nM; EC50 ([5]; read-out: Stable Replicon 1a H77 5% FBS EC50): 5.4 nM; EC50 ([6]; read-out: 1b BB7 5% FBS + 40% Human Plasma EC50): 18.4 nM; EC50 ([6]; read-out: 1b BB7 5% FBS EC50): 3 nM; EC50 ([11]; Huh-7, read-out: Transient Replicon 1a H77 5% FBS EC50): 3.6 nM |
